Reference: PMC5608556, “Photo-affinity labelling and biochemical analyses identify the target of trypanocidal simplified natural product analogues” (PLoS Neglected Tropical Diseases, 2017)
Read-outs that look alike come from different tables or passages of the source.

How the values were obtained:
[1] = test system: ATP production (oxidative phosphorylation) in digitonin-permeabilised PF T. brucei; experiment: ATP production assay in digitonin-permeabilised cells; assay type: cell-based, Trypanosoma brucei; details: for Effect on ATP production from succinate: succinate 2.5 mM as substrate
From the text: We next sought to identify the point at which ATP production was blocked using digitonin-permeabilised cells. Digitonin permeabilises the plasma membrane of trypanosomatids, but crucially, leaves the glycosomes and mitochondria intact and fully functional, allowing them to be probed with compartment-specific ATP-yielding substrates. Digitonin-permeabilised PF T. brucei were probed with succinate, which is readily transported across the PF T. brucei mitochondrial membrane by the dicarboxylic acid carrier and can yield only oxidative phosphorylation-derived ATP through the FoF1-ATP synthase (complex V).
Fig 5 Inhibition of ATP production in digitonin-permeabilsed cells. (A-C) Digitonin-permeabilised PF T. brucei were probed with substrates in the presence of inhibitors and resulting ATP production quantified by bioluminescence assay. See experimental section for details. Inhibitors were used at saturating concentrations to ensure that relevant enzyme activities were ablated. Key: NS, no substrate; NI, no inhibitor; SHAM, salicylhydroxamic acid (TAO inhibitor at 100 μM); Rotenone (complex I inhibitor at 100 μM); Malonate (complex II inhibitor at 5 mM); AA, antimycin A (complex III inhibitor at 200 μM); OA, oligomycin A (complex V inhibitor at 200 μM); DNP, 2,4-dinitrophenol (protonophore at 1 mM); Comp.1, compound 1 at 200 μM. Background relative light units (RLU) were subtracted from measurements and % ATP production normalised to the no inhibitor control. Data were averaged from three independent experiments, each performed in quadruplicate. Error bars show standard deviations. T-tests were performed against no inhibitor controls (black asterisks) and compound 1 (grey open circles) and significance values presented: p < 0.00005 (*** / °°°), p < 0.0005 (** / °°), p < 0.005 (* / °). (A) Succinate was used as a substrate to generate ATP solely through oxidative phosphorylation (OxPhos). Oxidative phosphorylation inhibitors malonate, AA, OA and DNP virtually eliminated all ATP production. […] (B) α-ketoglutarate yields 40% ATP through substrate-level phosphorylation (SubPhos) and 60% through oxidative phosphorylation. Malonate, AA, OA and DNP inhibit oxidative phosphorylation, but not substrate-level phosphorylation. […] (C) Gly-3P acts as an alternative entry site to the electron transport chain yielding ATP through oxidative phosphorylation and the glycosome (GlyPhos). Malonate has no effect, as it acts at a different entry point. AA, OA and DNP inhibit oxidative phosphorylation, but not glycosomal phosphorylation.
ATP production assays were carried out in duplicate, and three independent assays were conducted. Cells were digitonin-permeabilised as previously described. Briefly, cells were washed in PBS and permeabilised for 5 min at a density of 1x10^8 cells/mL in SoTE buffer (20 mM Tris.HCl (pH 7.5), 2 mM EDTA pH 7.5, 600 mM sorbitol) supplemented with 0.015% (w/v) digitonin. Permeabilised cells were pelleted at 5000 g for 3 min at 4°C and suspended to 8.4x10^7 cells/mL in ATP assay buffer (20 mM Tris.HCl (pH 7.4), 15 mM KH2PO4, 0.6 M sorbitol, 10 mM MgSO4, 2.5 mg/mL fatty acid-free BSA.
ATP production assays were carried out in 75 μl volumes in 96-well plates with a final PF T. brucei cell density of 6.7 x 10^7 cells/mL as previously reported. […] B-THP-Ts, antimycin A (AA) and oligomycin A (OA) were used at 200 μM, Dinitrophenol (DNP) at 1 mM, malonate at 5 mM, rotenone at 100 μM and salicylhydroxamic acid (SHAM) at 100 μM. 59.25 μL digitonin-permeabilised cells (prepared above) were added to 0.75 μl inhibitor dissolved in DMSO (or 0.75 μL DMSO without inhibitor for no inhibitor control) and incubated for 10 min to allow inhibitors to take effect. Substrate was added to 2.5 mM and incubated for 10 min. Reactions were started with the addition of ADP to 60 μM and incubated at RT for 30 min. […]

[2] = test system: mitochondrial membrane potential (Δψm) in live PF T. brucei; experiment: MitoTracker monitoring of mitochondrial membrane potential; assay type: cell-based, Trypanosoma brucei; details: 2 h; for Elevation of mitochondrial membrane potential (Δψm): compounds at 40 μM, MitoTracker Red/Green ratio relative to uninhibited control; for Effect on mitochondrial membrane potential (Δψm): AA and OA 2 μM, DNP 1 mM
From the text: To determine which mitochondrial complex of oxidative phosphorylation was targeted by B-THP-T compounds, their effects on the mitochondrial membrane potential (Δψm) were monitored in live PF T. brucei (Fig 6A). MitoTracker Red CMXRos, like tetramethylrhodamine and safranine, accumulates in active mitochondria and the degree of accumulation is dependent on the Δψm, however, accumulation of MitoTracker Green FM is independent of the Δψm and the ratio of red/green uptake can therefore be used to determine the Δψm normalised to the number and size of mitochondria present. […] Similarly, compounds 1 and 3 elevated the mitochondrial membrane potential (by 2-3-fold), confirming that they, like OA, reduce oxidative phosphorylation by the inhibition of the FoF1-ATP synthase.
Fig 6 Effects of compounds on mitochondrial membrane potential. PF T. brucei were incubated with inhibitors and MitoTracker Red CMXRos, which is an indicator of the mitochondrial membrane potential (Δψm). (A) MitoTracker-loaded cells were imaged to qualitatively detect differences in the Δψm. […] (B) Fluorescence of MitoTracker-loaded cells were quantified using a microplate reader and normalised to MitoTracker green fluorescence.
2 x 10^6 PF T. brucei cells were incubated in 1 mL GF-SDM-79 growth media supplemented with/without inhibitors for 2 h. B-THP-Ts were used at 40 μM, AA and OA at 2 μM, DNP at 1 mM and SHAM at 100 μM. MitoTracker Red CMXRos and MitoTracker Green FM were added to 100 nM and 1 μM respectively and incubated for a further 10 min. Cells were washed in growth medium and the MitoTracker reagents chased into the mitochondrion for 10 min in fresh growth medium supplemented with inhibitors. Cells were washed again in growth medium to remove unincorporated MitoTracker reagents, pelleted, suspended in 100 μL 4% PFA in PBS, and fixed at RT in the dark for 10 min. Fixed cells were pelleted and suspended in 100 μl PBS. Cells were transferred to poly-lysine-coated slides and mounted with DAPI-containing SlowFade mounting medium (Invitrogen). Fluorescence images were collected with a DeltaVision microscope (as detailed above) to show MitoTracker localisation and comparative intensity.
1 mL of cells at 1 x 10^7 cells/mL were labelled as above. However, instead of fixing cells they were resuspended in 200 μL growth medium and transferred to 96-well plates. Fluorescences were recorded (excitation at 540/35 nm, emission at 590/10 nm for MitoTracker Red CMXRos, and excitation at 485/20 nm, emission at 528/20 nm for MitoTracker Green FM) using a BioTek FLX800 spectrofluorimeter and Gen5 Reader Control 2.0 software, in much the same way as others have recorded previously. Background fluorescence values were subtracted from each and MitoTracker Red fluorescences normalised against their MitoTracker Green FM counterparts. Membrane potentials were then calculated relative to the uninhibited controls.

[3] = glycerol-3-phosphate as substrate, 30 min, compound 1, AA, OA 200 μM, DNP 1 mM
[4] = 30 min, compound 1, AA, OA 200 μM, DNP 1 mM, malonate 5 mM, rotenone, SHAM 100 μM

SMILES: CCCCCC[C@H]1CCC[C@@H](Cn2cc([C@@H]3CCC[C@H](CCCCO)O3)nn2)O1 [Compound 1]
- IC50 ([1]; Trypanosoma brucei, 0.5 h, read-out: IC50 against oxidative phosphorylation (ATP production), Gly-3P as substrate, digitonin-permeabilised PF T. brucei, Gly-3P, 30 min incubation): 39.2 ± 4.6 µM
- IC50 ([1]; Trypanosoma brucei, 0.5 h, read-out: IC50 against oxidative phosphorylation (ATP production), succinate as substrate, digitonin-permeabilised PF T. brucei, succinate, 30 min incubation): 57.3 ± 14.5 µM
- Inhibition of ATP production from Gly-3P [1, 3]: 82 ± 16%
- IC50 ([1]; read-out: IC50 against oxidative phosphorylation (ATP production), Gly-3P as substrate, digitonin-permeabilised PF T. brucei, Gly-3P, 30 min incubation): 39 ± 5 µM
- IC50 ([1]; read-out: IC50 against oxidative phosphorylation (ATP production), succinate as substrate, digitonin-permeabilised PF T. brucei, succinate, 30 min incubation): 57 ± 15 µM
- Effect on ATP production from succinate [1, 4]: decreased ATP production from succinate to similar levels
- Inhibition of ATP production from α-ketoglutarate ([1]; α-ketoglutarate as substrate, 30 min, compound 1, AA, OA 200 μM, DNP 1 mM, malonate 5 mM): 67 ± 13%
- Elevation of mitochondrial membrane potential (Δψm) [2]: 2-3 fold

SMILES: C#CCNC(=O)CCC[C@H]1CC2(C[C@@H](Cn3cc([C@@H]4CCC[C@H](CCCCOCc5ccccc5)O4)nn3)O1)N=N2 [Compound 3]
- Elevation of mitochondrial membrane potential (Δψm) [2]: 2-3 fold

SMILES: O=C(O)CC(=O)O [malonate]
- Effect on ATP production from Gly-3P ([1]; glycerol-3-phosphate as substrate, 30 min, malonate 5 mM, rotenone, SHAM 100 μM): no effect
- Effect on ATP production from succinate [1, 4]: completely eliminated all ATP production
- Effect on mitochondrial membrane potential (Δψm) [2]: decrease the Δψm

SMILES: CCCCCC[C@H]1C(=O)O[C@H](C)[C@H](NC(=O)c2cccc(NC=O)c2O)C(=O)O[C@@H](C)[C@@H]1OC(=O)CC(C)C [antimycin A]
- Inhibition of ATP production from Gly-3P [1, 3]: 75 ± 14%
- Effect on ATP production from succinate [1, 4]: almost abolished ATP production
- Effect on mitochondrial membrane potential (Δψm) [2]: decrease the Δψm
